Assay results reported in patent publication US7307077B2, “Heterocyclic compound and antitumor agent containing the same as effective ingredient” (Zenyaku Kogyo Kabushiki Kaisha, priority 2001, dated 2007).

Experiments:
MCF-7 cells = test: Test 1: growth inhibition of MCF-7 human breast cancer cells; format: cell-based; settings: Homo sapiens, MCF7, 72 hours culture with sample, read-out: GI50 (50% growth inhibition concentration)
Procedure: Used in the test were MCF-7 cells which were established from human breast cancer and were cultured routinely under the conditions of 37° C. and 5% CO2, in MEM medium supplemented with 10% fetal calf serum, 25 mM of HEPES and 0.1 mg/ml of kanamycin. The MCF-7 cells in a logarithmic growth phase were treated with trypsin/EDTA to prepare single cell suspension adjusted to 4.0×10^4 cells/ml in MEM medium (supplemented with 10% fetal calf serum, 25 mM of HEPES and 0.1 mg/ml of kanamycin). Test compounds were dissolved in DMSO and diluted with RPMI 1640 medium (supplemented with 10% fetal calf serum, 25 mM of HEPES and 0.1 mg/ml of kanamycin) to a concentration of 2.0×10^−4-2.0×10^−9 M.
The cell suspension was filled in a 96-wells microplate at a rate of 0.1 ml per well and was cultured for 24 hours so as to make the cells adhered to the microplate. Then, it was added with 0.1 ml of the sample solution and cultured at 37° C. for 72 hours in 5% CO2.
50% Growth inhibition concentrations (GI50 μM) were calculated from growth inhibitions at various sample concentrations.

Human colon cancer WiDr = test: Test 2: human colon cancer WiDr subcutaneous tumor in nude mice; format: in vivo, mutant BALA/c nude mice; settings: intraperitoneally 200 mg/kg, once a day, six times a week, for two weeks
Procedure: Human colon cancer WiDr was grown as subcutaneous tumor in mutant BALA/c nude mice. 2-mm-cube tumor fragments were transplanted subcutaneously into left flank of the nude mice. When the tumor reached logarithmic growth phase, mice were divided randomly into test groups consisting five mice per group. The samples prepared by dissolving test compounds in physiological saline solution or suspending them in 1% hydroxypropyl cellulose (HPC), using an agate mortar, were intraperitoneally administered at a rate of 200 mg/kg, once a day and six times a week in total, for two weeks. Major and minor axes of the tumor mass were measured on a daily basis to calculate tumor volume. The tumor volume at each measured day was divided by that at the start day of the sample administration to calculate relative tumor growth rate; and the relative tumor growth rate of the treated groups (T) and that of the control group (C) were used to calculate T/C (%).

| melting point | GI50 (MCF-7 cells) [µM] | Structure (SMILES) | judgment (T/C (%) of relative tumor growth rate, last day) (Human colon cancer WiDr) |
| --- | --- | --- | --- |
| 143 to 146 °C | 0.16 | C[C@@H]1OCCN(c2cc(N3CCOCC3)nc(-n3c(NC=O)nc4ccccc43)n2)[C@H]1C (relative stereo) [compound 27, 4-(trans-2,3-dimethylmorpholino)-2-(2-formylaminobenzimidazol-1-yl)-6-morpholinopyrimidine] |  |
| 239 to 243 °C (dec.) | 0.06 | CC1(C)OCCN1c1nc(N2CCOCC2)nc(-n2c(C(F)F)nc3cc(O)ccc32)n1 [compound 39, 2-(2-difluoromethyl-5-hydroxybenzimidazol-1-yl)-4-(2,2-dimethyloxazolidin-3-yl)-6-morpholino-1,3,5-triazine] |  |
| 176 to 178 °C | 0.13 | CC1(C)CN(c2nc(N3CCOCC3)nc(-n3c(C(F)F)nc4ccccc43)n2)CCO1 [compound 15, 2-(2-difluoromethylbenzimidazol-1-yl)-4-(2,2-dimethylmorpholino)-6-morpholino-1,3,5-triazine] |  |
| 188 to 191 °C | 0.12 | CC1CN(c2nc(N3CCOCC3)nc(-n3c(C(F)F)nc4ccccc43)n2)CCO1 (stereo not shown) [compound 17, 2-(2-difluoromethylbenzimidazol-1-yl)-4-(2-methylmorpholino)-6-morpholino-1,3,5-triazine] |  |
| 167 to 169 °C | 0.11 | C[C@@H]1OCCN(c2cc(N3CCOCC3)nc(-n3c(C(F)F)nc4ccccc43)n2)[C@@H]1C (relative stereo) [compound 1, 2-(2-difluoromethylbenzimidazol-1-yl)-4-(cis-2,3-dimethylmorpholino)-6-morpholinopyrimidine] |  |
| 220 to 222 °C (dec.) | 0.08 | C[C@@H]1OCCN(c2nc(N3CCOCC3)nc(-n3c(C(F)F)nc4ccc(N)cc43)n2)[C@@H]1C (relative stereo) [compound 33, 2-(6-amino-2-difluoromethylbenzimidazol-1-yl)-4-(2,3-cis-dimethylmorpholino)-6-morpholino-1,3,5-triazine] | + (Cases where T/C (%) of the last day was less than 50% and U-assay of Mann-Whitney revealed significant difference with one-sided risk rate of 1% were judged to be effective (+)) |
| 163 to 165 °C | 0.2 | C[C@@H]1OCCN(c2cc(N3CCOCC3)nc(-n3c(CF)nc4ccccc43)n2)[C@@H]1C (relative stereo) [compound 9, 4-(cis-2,3-dimethylmorpholino)-2-(2-fluoromethylbenzimidazol-1-yl)-6-morpholinopyrimidine] |  |
| 214 to 216 °C (dec.) | 0.08 | Nc1cccc2c1nc(C(F)F)n2-c1nc(N2CCOCC2)nc(N2CCOCC2)n1 [compound 34, 2-(4-amino-2-difluoromethylbenzimidazol-1-yl)-4,6-dimorpholino-1,3,5-triazine] |  |
| 170 to 175 °C (dec.) | 0.09 | C[C@@H]1OCCN(c2nc(N3CCOCC3)nc(-n3c(C(F)F)nc4cc(O)ccc43)n2)[C@@H]1C (relative stereo) [compound 37, 2-(2-difluoromethyl-5-hydroxybenzimidazol-1-yl)-4-(2,3-cis-dimethylmorpholino)-6-morpholino-1,3,5-triazine] |  |
| 113 to 116 °C | 0.32 | C[C@H]1COC(C)(C)CN1c1cc(N2CCOCC2)nc(-n2c(C(F)F)nc3ccccc32)n1 [compound 8, 2-(2-difluoromethylbenzimidazol-1-yl)-4-morpholino-6-[2,2,5(S)-trimethylmorpholino]pyrimidine] |  |
| 218 to 219 °C (dec.) | 0.14 | Nc1ccc2nc(C(F)F)n(-c3nc(N4CCOCC4)cc(N4CCOCC4)n3)c2c1 [compound 35, 2-(6-amino-2-difluoromethylbenzimidazol-1-yl)-4,6-dimorpholinopyrimidine] |  |
| 169 to 171 °C | 0.22 | C[C@@H]1COC(C)(C)CN1c1nc(N2CCOCC2)nc(-n2c(C(F)F)nc3ccccc32)n1 [compound 20, 2-(2-difluoromethylbenzimidazol-1-yl)-4-morpholino-6-[2,2,5(R)-trimethylmorpholino]-1,3,5-triazine] |  |
| 206 to 209 °C | 0.25 | COC(=O)Nc1nc2ccccc2n1-c1nc(N2CCOCC2)nc(N2CCOCC2)n1 [compound 29, 2-(2-methoxycarbonylaminobenzimidazol-1-yl)-4,6-dimorpholino-1,3,5-triazine] |  |
| 141 to 143 °C | 0.2 | C[C@@H]1OCCN(c2cc(N3CCCCC3)nc(-n3c(CO)nc4ccccc43)n2)[C@@H]1C (relative stereo) [compound 11, 4-(cis-2,3-dimethylmorpholino)-2-(2-hydroxymethylbenzimidazol-1-yl)-6-piperidinopyrimidine] |  |

More lines, now with the values behind:

| Structure (SMILES) | melting point | GI50 (MCF-7 cells) [µM] | judgment (T/C (%) of relative tumor growth rate, last day) (Human colon cancer WiDr) |
| --- | --- | --- | --- |
| C[C@@H]1OCCN(c2cc(N3CCOCC3)nc(-n3c(C(F)F)nc4ccc(N)cc43)n2)[C@@H]1C (relative stereo) [compound 36, 2-(6-amino-2-difluoromethylbenzimidazol-1-yl)-4-(2,3-cis-dimethylmorpholino)-6-morpholinopyrimidine] | 155 to 158 °C (dec.) | 0.29 |  |
| CC1(C)CN(c2cc(N3CCOCC3)nc(-n3c(C(F)F)nc4ccccc43)n2)CCO1 [compound 5, 2-(2-difluoromethylbenzimidazol-1-yl)-4-(2,2-dimethylmorpholino)-6-morpholinopyrimidine] | 149 to 152 °C | 0.22 |  |
| C[C@@H]1OCCN(c2cc(N3CCOCC3)nc(-n3c(N)nc4ccccc43)n2)[C@H]1C.Cl (relative stereo) [compound 31, 2-(2-aminobenzimidazol-1-yl)-4-(trans-2,3-dimethylmorpholino)-6-morpholinopyrimidine hydrochloride] | 141 to 145 °C | 0.24 | + (Cases where T/C (%) of the last day was less than 50% and U-assay of Mann-Whitney revealed significant difference with one-sided risk rate of 1% were judged to be effective (+)) |
| C[C@@H]1OCCN(c2cc(N3CCOCC3)nc(-n3c(CO)nc4ccccc43)n2)[C@@H]1C (relative stereo) [compound 10, 4-(cis-2,3-dimethylmorpholino)-2-(2-hydroxymethylbenzimidazol-1-yl)-6-morpholinopyrimidine] | 125 to 128 °C | 0.13 |  |
| CC(=O)Nc1nc2ccccc2n1-c1nc(N2CCOCC2)cc(N2CCO[C@@H](C)[C@@H]2C)n1 (relative stereo) [compound 23, 2-(2-acetylaminobenzimidazol-1-yl)-4-(trans-2,3-dimethylmorpholino)-6-morpholinopyrimidine] | 150 to 153 °C | 0.19 |  |
| CC1(C)CN(c2nc(N3CCOCC3)nc(-n3c(C(F)F)nc4c(O)cccc43)n2)CCO1 [compound 38, 2-(2-difluoromethyl-4-hydroxybenzimidazol-1-yl)-4-(2,2-dimethylmorpholino)-6-morpholino-1,3,5-triazine] | 228 to 231 °C (dec.) | 0.03 |  |
| C[C@@H]1OCCN(c2cc(N3CCCC3CO)nc(-n3c(CO)nc4ccccc43)n2)[C@@H]1C (relative stereo) [compound 12, 4-(cis-2,3-dimethylmorpholino)-2-(2-hydroxymethylbenzimidazol-1-yl)-6-(2-hydroxymethylpyrrolidin-1-yl)pyrimidine] | 104 to 108 °C | 0.39 |  |
| FC(F)c1nc2ccccc2n1-c1nc(N2CCOCC2)nc(N2CCOCC2)n1 [compound 19, 2-(2-difluoromethylbenzimidazol-1-yl)-4,6-dimorpholino-1,3,5-triazine] |  | 0.09 | + (Cases where T/C (%) of the last day was less than 50% and U-assay of Mann-Whitney revealed significant difference with one-sided risk rate of 1% were judged to be effective (+)) |
| FC(F)c1nc2ccccc2n1-c1nc(N2CCOCC2)cc(N2CCSCC2)n1 [compound 3, 2-(2-difluoromethylbenzimidazol-1-yl)-4-morpholino-6-thiomorpholinopyrimidine] | 173 to 175 °C | 0.38 |  |
| C[C@@H]1OCCN(c2cc(N3CCOCC3)nc(-n3c(N)nc4ccccc43)n2)[C@@H]1C.Cl (relative stereo) [compound 30, 2-(2-aminobenzimidazol-1-yl)-4-(cis-2,3-dimethylmorpholino)-6-morpholinopyrimidine hydrochloride] | 151 to 155 °C | 0.25 |  |
| FC(F)c1nc2ccccc2n1-c1nc(N2CCOCC2)cc(N2CCOCC2)n1 [compound 2, 2-(2-difluoromethylbenzimidazol-1-yl)-4,6-dimorpholinopyrimidine] | 201 to 202 °C | 0.21 |  |
